Test results reported in PubChem BioAssay AID743230.

Target: cofactor-independent phosphoglycerate mutase (iPGM), Brugia malayi / Caenorhabditis elegans
Assay: nematode iPGM enzyme inhibitors, biochemical, cofactor-independent, HTS (AID 743230)
Details: recombinant nematode iPGM, coupled NADH absorbance decline

| IC50 | SMILES |
| --- | --- |
| 10.4 µM | CCc1cc2c[n+](C3CCCCC3)sc2s1 |
| 38.3 µM | Nc1cc2cccnc2c2ncccc12 |
